# Test results: paper PMC10892423 (Pharmaceutics, 2024)
# Assays:
# [1] = system: MBL-producing P. aeruginosa static biofilms; assay: Anti-biofilm activity, crystal violet staining; type: cell-based, Pseudomonas aeruginosa; details: for Biofilm biomass (OD600): 27 32 mg/L
# Source text: inhibitor 27 against MBL-producing P. aeruginosa clinical isolates.
# 1 Biofilm biomass was quantified by crystal violet staining at OD600.2 %-inhibition of biofilm
# [2] = system: MBL-producing P. aeruginosa clinical isolates; assay: MIC by broth microdilution (CLSI); type: cell-based, Pseudomonas aeruginosa; details: for MIC: Pseudomonas aeruginosa
# Protocol: The DMSO stock solutions of the test compounds were serially diluted to the desired concentrations in CAMHB. Then, 10 μL of the bacterial suspension (5 × 10^5 colony forming units (CFU)/mL) was combined with 200 μL of DMSO stock solutions of the test compounds in 96-well microtiter plates (1% DMSO, final). After the incubation of the plate at 37 °C for 24 h, bacterial growth was visibly evaluated by monitoring the turbidity of the resulting suspension, and the MICs were determined as the lowest concentrations of the test compounds that inhibited the visible growth of the bacteria.
# [3] = system: MBL-producing P. aeruginosa clinical isolates; assay: Broth microdilution checkerboard synergy assay (MIC of ATM in combination); type: cell-based, Pseudomonas aeruginosa; details: for MIC of ATM, alone or in combination: Table 4; for MIC Value of ATM, alone or in combination with ARMA: Table 2
# [4] = target: T1, NDM-1 (Klebsiella pneumoniae, UniProt C7C422); assay: β-lactamase inhibition, imipenem hydrolysis; type: biochemical; details: imipenem substrate; read-out: β-Lactamases, IC50 NDM-1
# T1 construct: purchased RayBiotech, Inc. 230-00554
# Source text: (§1) Recombinant AmpC from Escherichia coli was produced according to a previously reported protocol. KPC-2 and NDM-1 […] were purchased from LifeSpan Biosciences, Inc. (Lynnwood, WA, USA) (LS-G26598) and RayBiotech, Inc. (Peachtree Corners, GA, USA) (230-00554), respectively. Genes encoding OXA-48 (residues 23–265) and VIM-2 (residues 27–266) were custom-synthesized (Bioneer Inc., Seoul, Republic of Korea) and expressed as previously described. The β-lactamase inhibitory activity of the title compounds was then determined according to the previously reported methods. Briefly, equal volumes (100 μL) of the title compounds (70–0.1 μM in PBS) and diluted enzyme stock were mixed (final concentration 2% of DMSO in 200 μL) in 96-well plates, which were then incubated at 37 °C for 20 min. The incubated mixture was added to each well containing substrates (nitrocefin for AmpC, KPC-2, OXA-48, and VIM-2; and imipenem for NDM-1) of final concentrations of 70 μM for nitrocefin and 100 μM for imipenem. Substrate hydrolysis was monitored at 486 nm (nitrocefin) or 300 nm (imipenem) for 15 min, using a Cytation 5 imaging multimode reader (BioTek Instruments Inc., Winooski, VT, USA). At the plateau level of hydrolysis, the corresponding rates of hydrolysis were compared to those obtained without inhibitors (100%) to determine the percentage of enzyme inhibition at each concentration of the title compounds. The IC50 values of the compounds were derived from sigmoidal dose–response curves, using GraphPad Prism 5 (GraphPad Software, Boston, MA, USA).
# [5] = target: T2, OXA-48 (Klebsiella pneumoniae, UniProt Q6XEC0); assay: β-lactamase inhibition, nitrocefin hydrolysis; type: biochemical; details: nitrocefin substrate; read-out: β-Lactamases, IC50 OXA-48
# T2 construct: Genes encoding OXA-48 (residues 23–265) and VIM-2 (residues 27–266) were custom-synthesized; made in house
# Source text: as §1
# [6] = target: T3, AmpC (Escherichia coli, UniProt P00811); assay: β-lactamase inhibition, nitrocefin hydrolysis; type: biochemical
# T3 construct: made in house
# Source text: as §1
# [7] = target: T4, KPC-2 (Klebsiella pneumoniae, UniProt Q9F663); assay: β-lactamase inhibition, nitrocefin hydrolysis; type: biochemical; details: nitrocefin substrate; read-out: β-Lactamases, IC50 KPC-2
# T4 construct: purchased LifeSpan Biosciences, Inc. LS-G26598
# Source text: as §1
# [8] = target: T5, VIM-2 (Escherichia coli, UniProt Q5U7L7); assay: β-lactamase inhibition, nitrocefin hydrolysis; type: biochemical; details: nitrocefin substrate; read-out: β-Lactamases, IC50 VIM-2
# T5 construct: Genes encoding OXA-48 (residues 23–265) and VIM-2 (residues 27–266) were custom-synthesized; made in house
# Source text: as §1
# T2 sequence (Q6XEC0 23-265 limits assumed): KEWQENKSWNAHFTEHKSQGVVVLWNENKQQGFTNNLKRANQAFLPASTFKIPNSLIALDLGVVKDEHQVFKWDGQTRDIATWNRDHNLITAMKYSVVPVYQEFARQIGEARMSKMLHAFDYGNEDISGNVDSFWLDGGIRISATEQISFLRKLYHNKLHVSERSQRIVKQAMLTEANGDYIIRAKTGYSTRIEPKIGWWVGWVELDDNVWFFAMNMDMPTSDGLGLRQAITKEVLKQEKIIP
# T1 sequence (C7C422 29-270, looked up, species assumed): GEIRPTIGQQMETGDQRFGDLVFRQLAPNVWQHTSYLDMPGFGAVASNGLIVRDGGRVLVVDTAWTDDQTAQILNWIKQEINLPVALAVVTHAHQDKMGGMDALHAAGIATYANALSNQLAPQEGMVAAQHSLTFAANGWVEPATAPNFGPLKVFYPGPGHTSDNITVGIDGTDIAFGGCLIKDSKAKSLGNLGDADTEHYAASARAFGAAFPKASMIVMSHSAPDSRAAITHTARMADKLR
# T4 sequence (Q9F663 25-293, looked up): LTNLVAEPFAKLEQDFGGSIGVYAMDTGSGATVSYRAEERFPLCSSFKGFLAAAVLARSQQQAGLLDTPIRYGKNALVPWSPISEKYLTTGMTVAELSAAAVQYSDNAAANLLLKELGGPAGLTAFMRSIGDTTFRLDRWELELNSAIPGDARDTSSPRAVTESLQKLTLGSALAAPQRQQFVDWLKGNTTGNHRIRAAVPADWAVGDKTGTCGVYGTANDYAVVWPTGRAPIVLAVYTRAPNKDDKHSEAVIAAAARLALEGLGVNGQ
# T3 sequence (P00811 20-377): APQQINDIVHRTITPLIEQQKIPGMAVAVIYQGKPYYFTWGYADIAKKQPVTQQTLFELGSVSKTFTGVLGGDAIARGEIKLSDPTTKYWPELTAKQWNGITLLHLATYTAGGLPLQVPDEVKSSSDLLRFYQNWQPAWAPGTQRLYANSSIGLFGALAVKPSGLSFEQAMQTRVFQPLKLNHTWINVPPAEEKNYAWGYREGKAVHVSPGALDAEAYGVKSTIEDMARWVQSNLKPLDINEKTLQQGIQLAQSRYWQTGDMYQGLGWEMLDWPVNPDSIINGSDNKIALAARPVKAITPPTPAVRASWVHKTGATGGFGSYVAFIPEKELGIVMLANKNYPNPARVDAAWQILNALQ
structure (smiles),measurement,setting,value
"C[C@H]1[C@H](NC(=O)/C(=N\OC(C)(C)C(=O)O)c2csc(N)n2)C(=O)N1S(=O)(=O)O [ATM, aztreonam]",inhibition of biofilm formation,[1]; 1/2 × MIC ATM alone,no significant inhibition of biofilm formation
same,Biofilm biomass (OD600),"[1]; PA-007, blaNDM, ATM 1/2 MIC (8 mg/L)",1.03
same,Biofilm biomass (OD600),"[1]; PA-011, blaNDM, ATM 1/2 MIC (8 mg/L)",0.51
same,Biofilm biomass (OD600),"[1]; PA-012, blaNDM, ATM 1/2 MIC (8 mg/L)",0.23
same,Biofilm biomass (OD600),"[1]; PA-030, blaIMP, ATM 1/2 MIC (32 mg/L)",1.84
same,ATM MICs relative to the CLSI antibiotic susceptibility breakpoint (1 mg/L),[2]; 21 MBL-producing P. aeruginosa strains,8–64 times higher
same,MIC,"[2]; PA-001, blaNDM",32 µg/mL
same,MIC,"[2]; PA-002, blaIMP",64 µg/mL
same,MIC,"[2]; PA-007, blaNDM",16 µg/mL
same,MIC,"[2]; PA-008, blaNDM",16 µg/mL
same,MIC,"[2]; PA-011, blaNDM",16 µg/mL
same,MIC,"[2]; PA-012, blaNDM",16 µg/mL
same,MIC,"[2]; PA-016, blaIMP",64 µg/mL
same,MIC,"[2]; PA-017, blaNDM",16 µg/mL
same,MIC,"[2]; PA-019, blaNDM",16 µg/mL
same,MIC,"[2]; PA-020, blaNDM",16 µg/mL
same,MIC,"[2]; PA-023, blaNDM",16 µg/mL
same,MIC,"[2]; PA-025, blaNDM",16 µg/mL
same,MIC,"[2]; PA-027, blaIMP",32 µg/mL
same,MIC,"[2]; PA-028, blaNDM",8 µg/mL
same,MIC,"[2]; PA-029, blaIMP",64 µg/mL
same,MIC,"[2]; PA-030, blaIMP",64 µg/mL
same,MIC,"[2]; PA-034, blaNDM",16 µg/mL
same,MIC,"[2]; PA-036, blaNDM",16 µg/mL
same,MIC,"[2]; PA-038, blaNDM",16 µg/mL
same,MIC,"[2]; PA-039, blaNDM",16 µg/mL
same,MIC,"[2]; PA-044, blaNDM",16 µg/mL
same,"MIC of ATM, alone or in combination","[3]; PA-001, blaNDM",32 µg/mL
same,"MIC Value of ATM, alone or in combination with ARMA","[3]; PA-002, blaIMP",64 µg/mL
same,"MIC of ATM, alone or in combination","[3]; PA-002, blaIMP",64 µg/mL
same,"MIC Value of ATM, alone or in combination with ARMA","[3]; PA-003, blaVIM",32 µg/mL
same,"MIC of ATM, alone or in combination","[3]; PA-007, blaNDM",16 µg/mL
same,"MIC of ATM, alone or in combination","[3]; PA-008, blaNDM",16 µg/mL
same,"MIC of ATM, alone or in combination","[3]; PA-011, blaNDM",16 µg/mL
same,"MIC of ATM, alone or in combination","[3]; PA-012, blaNDM",16 µg/mL
same,"MIC of ATM, alone or in combination","[3]; PA-016, blaIMP",64 µg/mL
same,"MIC of ATM, alone or in combination","[3]; PA-017, blaNDM",16 µg/mL
same,"MIC of ATM, alone or in combination","[3]; PA-019, blaNDM",16 µg/mL
same,"MIC of ATM, alone or in combination","[3]; PA-020, blaNDM",16 µg/mL
same,"MIC of ATM, alone or in combination","[3]; PA-023, blaNDM",16 µg/mL
same,"MIC Value of ATM, alone or in combination with ARMA","[3]; PA-025, blaNDM",16 µg/mL
same,"MIC of ATM, alone or in combination","[3]; PA-025, blaNDM",16 µg/mL
same,"MIC of ATM, alone or in combination","[3]; PA-027, blaIMP",32 µg/mL
same,"MIC of ATM, alone or in combination","[3]; PA-028, blaNDM",8 µg/mL
same,"MIC of ATM, alone or in combination","[3]; PA-029, blaIMP",64 µg/mL
same,"MIC of ATM, alone or in combination","[3]; PA-030, blaIMP",64 µg/mL
same,"MIC of ATM, alone or in combination","[3]; PA-034, blaNDM",16 µg/mL
same,"MIC of ATM, alone or in combination","[3]; PA-036, blaNDM",16 µg/mL
same,"MIC Value of ATM, alone or in combination with ARMA","[3]; PA-038, blaNDM",16 µg/mL
same,"MIC of ATM, alone or in combination","[3]; PA-038, blaNDM",16 µg/mL
same,"MIC of ATM, alone or in combination","[3]; PA-039, blaNDM",16 µg/mL
same,"MIC of ATM, alone or in combination","[3]; PA-044, blaNDM",16 µg/mL
"NC(=O)[C@@H]1CC[C@@H]2CN1C(=O)N2OS(=O)(=O)O [AVI, avibactam]",concentration at which ATM-potentiating activity was observed,[3]; four representative MBL-producing P. aeruginosa strains (Table 2),128 mg/L
CC(C)c1ccc(COc2c(-c3ccc(F)c(F)c3)oc3cc(O)cc(O)c3c2=O)cc1 [Compound 7],IC50,[4],16.7 µM
same,IC50,[5],6 µM
same,IC50,[6],> 50 µM
same,IC50,[7],21.5 µM
same,IC50,[8],13.1 µM
NCCOCCOc1c(-c2ccc(F)c(F)c2)oc2cc(O)cc(O)c2c1=O [Compound 11],IC50,[4],> 50 µM
same,IC50,[5],> 100 µM
same,IC50,[6],> 50 µM
same,IC50,[7],> 50 µM
same,IC50,[8],> 100 µM
C[N+](C)(CCOc1c(-c2ccc(F)c(F)c2)oc2cc(O)cc(O)c2c1=O)CC(=O)[O-] [Compound 15],IC50,[4],> 50 µM
same,IC50,[5],> 100 µM
same,IC50,[6],> 50 µM
same,IC50,[7],> 50 µM
same,IC50,[8],> 100 µM
O=c1c(OCCN2CCCC2)c(-c2ccc(F)c(F)c2)oc2cc(O)cc(O)c12 [Compound 18],IC50,[4],> 50 µM
same,IC50,[5],> 100 µM
same,IC50,[6],> 50 µM
same,IC50,[7],> 50 µM
same,IC50,[8],> 100 µM
CC(C)(C)C(=O)OCOc1c(-c2ccc(F)c(F)c2)oc2cc(O)cc(O)c2c1=O [Compound 4],IC50,[4],15.7 µM
same,IC50,[5],28.7 µM
same,IC50,[6],25.4 µM
same,IC50,[7],33.2 µM
same,IC50,[8],19.3 µM
O=c1c(OCCc2cccs2)c(-c2ccc(F)c(F)c2)oc2cc(O)cc(O)c12 [Compound 12],IC50,[4],> 50 µM
same,IC50,[5],> 100 µM
same,IC50,[6],> 50 µM
same,IC50,[7],> 50 µM
same,IC50,[8],> 100 µM
